Publication PMC5786306, “An AKAP-Lbc-RhoA interaction inhibitor promotes the translocation of aquaporin-2 to the plasma membrane of renal collecting duct principal cells” (PLoS ONE, 2018)
Entries after “also recorded” stand apart in the source; their conditions may differ. Read-outs that look alike come from different tables or passages of the source.

Legend:
[1] = molecular target: T1, interaction of AKAP-Lbc/DHPH and RhoA (Homo sapiens, UniProt P61586); assay: Homogeneous time-resolved fluorescence (HTRF) assay; format: binding; details: HTRF; for IC50: Table 1, '-' = no IC50, inactive (n.d. is used separately in S3 Table); for inhibitory effect on the AKAP-Lbc/DHPH-RhoA interaction: result in words
T1 construct: His6-AKAP-Lbc/DHPH (aa 1972–2342 of human AKAP-Lbc; NP_006729.4); made in house
Excerpt: Fig 2 The small molecule Scaff10-8 inhibits the interaction of the DH domain of AKAP-Lbc and RhoA. (A). Principle of homogenous time-resolved fluorescence (HTRF) assay. Recombinant His-AKAP-Lbc/DHPH and GST-RhoA were generated. The tags are recognized by specific antibodies coupled to fluorescent dyes. When the two proteins interact, donor and acceptor dyes of the antibodies are in close proximity, energy transfer occurs upon excitation at 320 nm and a FRET signal is detected (665 nm). If a compound disrupts the interaction of the DHPH domain and RhoA, the proximity of the fluorescent moieties remains insufficient for a FRET signal to occur. […] As expected, excess untagged Rho decreases the binding between GST-RhoA and His-AKAP-Lbc/DHPH in a dose-dependent manner (lower left panel). […] (C) The influence of Scaff10-8 on the interaction of RhoA with the recombinant DH domain of AKAP-Lbc in the absence of the PH domain was determined by Alpha screen. […] The IC50 value is indicated.
The assay was essentially carried out as described. Scaff10 derivatives were added to His6-AKAP-Lbc/DHPH protein (250 nM final concentration) in HTRF buffer (PBS; 4 mM MgCl2; 0.05% Tween 20) in 384 well plates (Proxiplate-384 Plus, white, #6008289; Perkin Elmer LAS, Rodgau, Germany). Concentrations of Scaff10 derivatives ranged between 1.56–200 μM (2% DMSO final concentration); HTRF buffer with 2% DMSO served as a control. GST-RhoA (30 nM final concentration) in HTRF buffer and anti-GST antibody coupled to terbium (donor) and anti-His6-tag antibody coupled to XL665 (acceptor) were added to all wells (final antibody concentration: 2 μg/ml). After 1 h incubation at room temperature in the dark, FRET signals were recorded at 620 and 665 nm using a Genios Pro plate reader (Tecan Austria GmbH, Grödig, AT) and the ratios of […] to 620 nm were calculated. Wells containing no compound were set to 100% interaction of AKAP-Lbc/DHPH with RhoA, wells containing GST-RhoA only (without His6-AKAP-Lbc/DHPH) were set to 0% interaction. To exclude any interference of the tags and/or antibodies with Scaff10 derivatives, a His6-GST fusion protein replaced the two tagged proteins in a control assay. Wells containing His6-GST fusion protein were set to 100% interaction of His6-GST, wells containing no fusion protein were set to 0% interaction.

[2] = molecular target: T2, 647-RhoA (Homo sapiens, UniProt P61586); assay: Microscale thermophoresis (MST) with 647-RhoA; format: binding; details: for Kd: mean ± SEM
T2 construct: made in house
Protocol: (§1) The final concentration of GFP-AKAP-Lbc/DHPH was set to 150 nM, 95% LED and 80% MST laser power. […] The samples were incubated in the dark for 1 h incubation at room temperature, and measured with 30 sec laser-on and 5 sec laser-off time at a Monolith NT.115 device (NanoTemper). Measured fluorescence (F) was normalised (Fhot/Fcold = Fsteady state/Finitial state, Fig 3). Values of thermophoresis + T-jump were related to average of each measurement row (16 capillaries). Final values are given as ‰.
(§2) Fig 4 The Scaff10 derivative Scaff10-8 binds to RhoA but not to the DHPH domain of AKAP-Lbc. (A-D) Microscale thermophoresis (MST) takes advantage of the phenomenon of directed movement of particles in a temperature gradient. Binding events lead to changes in the hydration shell of biomolecules and a relative change of movement of the molecular complex along a temperature gradient. Using such changes, binding affinities can be determined. MST assays were carried out with (A) the recombinant DHPH domain of AKAP-Lbc fused with GFP and RhoA as a ligand and (B) fluorescent 647-RhoA and the His-tagged AKAP-Lbc/DHPH domain as a ligand. (C) MST assays for the analysis of the binding of Scaff10-8 to 647-RhoA. Upper panels: The concentration of fluorescent 647-RhoA remained constant and Scaff10-8 (left) and Scaff10-7 as a negative control (right) were titrated in increasing concentrations. Lower panels: Values of fluorescence corresponding to upper panels. (D) MST assay showing no binding of Scaff10-8 or Scaff10-7 to GFP-DHPH. Upper panels: The concentration of fluorescent GFP-AKAP-Lbc/DHPH remained constant and Scaff10-8 (left) and Scaff10-7 (right) were titrated in increasing concentrations. Lower panels: Values of fluorescence corresponding to upper panels. […] F norm = normalized fluorescence (fluorescence steady state/fluorescence initial state) indicated in ‰. n = 3–5. Mean ± SEM. […] The ligand protein named in each panel heading is used as the substance label, and it is uncertain whether these count as substances.

[3] = Nephelometric solubility; format: physicochemical; details: maximal solubility in DMEM + 10 % FCS
Protocol: Solubility of Scaff10 derivatives was assessed nephelometrically. Scaff10 derivatives are moderately to poorly soluble in aqueous solutions due to their large number of aromatic rings having lipophilic character. Details about NMR, LC/MS and HPLC characterization steps are given in the Supplemental Information.
Suppl. Tab. 3: Overview of all 55 Scaff10 derivatives.Structures labeld with 1 were commercially obtained. MW = molecular weight. logP = calculated partition coefficient (using […]
Solubility was assessed nephelometrically in DMEM + 10 % FCS + Scaff10 derivative with either 0.3 or 2 % DMSO
final concentration; values in µM indicate maximal solubility of the compound under the respective condition. Yield in % indicates total yield of the last step of chemical synthesis
for each of Scaff10 derivatives. n.d. = not determined. n.i. = not indicated.
Scaff10 MW Number of exp. 2 % DMSO 0.3 % DMSO Scaff10 Yield
Structure log P Disruption of the PPI IC50 [µM]
derivative [g/mol] in dupl. [µM] [µM] class [%]

[4] = molecular target: T3, interaction of the DH domain of AKAP-Lbc and RhoA (Homo sapiens, UniProt P61586); assay: Alpha screen assay; format: binding; details: result in words
T3 construct: The proteins used were N-terminally His6-tagged AKAP-Lbc-DH domain
Protocol: Assays were performed according to the manufacturer’s protocol (PerkinElmer) with minor modifications. All reagents were diluted in buffer containing 25 mM Hepes, pH 7.4, 100 mM NaCl, 0.1% bovine serum albumin, 0.05% CHAPS and 50 μM GDP and allowed to equilibrate to room temperature before addition to plates. […] The proteins used were N-terminally His6-tagged AKAP-Lbc-DH domain and C-terminally biotinylated RhoA. […] 8 μL of assay buffer containing donor and acceptor beads at 1:400 dilution was then added, the plate was incubated in the dark for 60 min and then read on a PheraStar FS plate reader (BMG Labtech, Germany) using an AlphaScreen^TM 680 excitation/570 emission filter set.
11.6 μL of a solution containing 100 nM RhoA and 200 nM AKAP13 in assay buffer was added and incubated with the compounds for 30 min at RT in foil-sealed plates. 8 μL of assay buffer containing donor and acceptor beads at 1:400 dilution was added. The plate was incubated in the dark for 60 min and then read on a PheraStar FS plate reader.

[5] = tested on: AQP2 localization in MCD4 cells; assay: Immunofluorescence microscopy of AQP2 in MCD4 cells; format: cell-based, mouse; details: 30 μM
[6] = comparison value, no reference given; cited from earlier work
[7] = molecular target: T4, GFP-AKAP-Lbc/DHPH (Homo sapiens, UniProt Q12802); assay: Microscale thermophoresis (MST) with GFP-AKAP-Lbc/DHPH; format: binding; details: read-out: KD for binding to GFP-AKAP-Lbc/DHPH
T4 construct: His6-AKAP-Lbc/DHPH (aa 1972–2342 of human AKAP-Lbc; NP_006729.4); made in house; host or cells: HEK293-EBNA cells (transient transfection, pTT5)
T4 sequence (Q12802 1972-2342 isoform Q12802-2): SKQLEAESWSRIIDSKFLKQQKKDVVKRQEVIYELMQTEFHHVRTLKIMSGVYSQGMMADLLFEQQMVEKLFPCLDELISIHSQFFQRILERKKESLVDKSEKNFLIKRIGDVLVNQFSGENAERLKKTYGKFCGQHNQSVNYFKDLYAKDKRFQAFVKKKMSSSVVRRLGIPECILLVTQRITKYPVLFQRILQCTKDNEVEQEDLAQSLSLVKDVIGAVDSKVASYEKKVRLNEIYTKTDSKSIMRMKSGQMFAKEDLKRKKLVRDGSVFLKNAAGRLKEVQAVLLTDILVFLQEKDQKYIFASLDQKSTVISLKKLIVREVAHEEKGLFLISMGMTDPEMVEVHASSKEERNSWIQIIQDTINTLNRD
Protocol: as §1, §2

[8] = DMEM + 10 % FCS, plasma or biological fluid, kinetic from dmso stock, 0.3 % DMSO final, read-out: Solubility 0.3 % DMSO
[9] = DMEM + 10 % FCS, plasma or biological fluid, kinetic from dmso stock, 2 % DMSO final, read-out: Solubility 2 % DMSO

T1 sequence (P61586 whole entry, the tested form may be a part): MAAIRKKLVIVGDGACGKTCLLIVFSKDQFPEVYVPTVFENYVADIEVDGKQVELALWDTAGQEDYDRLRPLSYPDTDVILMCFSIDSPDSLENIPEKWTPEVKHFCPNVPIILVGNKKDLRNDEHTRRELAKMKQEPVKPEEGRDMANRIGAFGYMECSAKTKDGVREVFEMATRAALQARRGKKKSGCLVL
T2 sequence (P61586 whole entry): as the sequence (P61586 whole entry, the tested form may be a part) above
T3 sequence (P61586 whole entry, the tested form may be a part): as above

## Cc1c(CCC(=O)O)c(=O)oc2cc3occ(-c4ccc(Oc5ccccc5)cc4)c3cc12 [Scaff10-38]
[1]; IC50 ± SEM
  IC50: 36.7 ± 3.3 µM
[2]; KD for binding to 647-RhoA, n = 3–5
  Kd: 19.5 ± 4.1 µM
[3]; [8]
  solubility: > 150 µM
[3]; [9]
  solubility: 100 µM

## COC(=O)CCc1c(C)c2cc3c(-c4ccc(OC)cc4)coc3cc2oc1=O [Scaff10-48]
[1]
  inhibitory effect on the AKAP-Lbc/DHPH-RhoA interaction: complete loss of the inhibitory effect
[1]; read-out: IC50 ± SEM
  IC50: > 200 µM
[2]; result in words
  binding to 647-RhoA: did not bind
[3]; 0.3 % DMSO final, read-out: Solubility 0.3 % DMSO
  solubility: 75 µM
[3]; 2 % DMSO final, read-out: Solubility 2 % DMSO
  solubility: 30 µM

## CCOC(=O)CCc1c(C)c2ccc(OCc3ccc(OC)cc3)cc2oc1=O [Scaff10-59]
[1]
  inhibitory effect on the AKAP-Lbc/DHPH-RhoA interaction: did not; also recorded: without inhibitory effects
[1]; read-out: IC50 ± SEM
  IC50: > 200 µM
[4]
  inhibitory effect in Alpha screen: without inhibitory effects
[5]
  localization of AQP2 in MCD4 cells: did not affect the location of AQP2
[3]; [8]
  solubility: 40 µM
[3]; [9]
  solubility: 30 µM

## CC(=O)NO [acetohydroxamic acid]
[6]
  pKa: 8.7

## O=C(O)/C=C/c1ccccc1 [cinnamic acid]
[6]
  pKa: 4.44

## untagged RhoA: recombinant untagged RhoA protein used as competitor or ligand
[7]
  Kd: 42 ± 5 µM

B1: His-AKAP-Lbc/DHPH: recombinant His-tagged DHPH domain of AKAP-Lbc (protein)
chain: T4 sequence (Q12802 1972-2342 isoform Q12802-2)
modifications: left off: His6, end not stated, kept
[2]; n = 3–5, read-out: KD for binding to 647-RhoA
  Kd: 14 ± 4 µM
